Test results reported in ChEMBL document CHEMBL4270670 (J Med Chem, 2018).

How the values were obtained:
in vitro [1] = settings: chicken, chicken embryo fibroblasts
in vitro [2] = settings: dog, MDCK cells
Influenza A virus [3] = test: microbe, parasite or virus in culture; settings: MDCK, 48 h
Influenza A virus [4] = test: microbe, parasite or virus in culture; settings: A/Puerto Rico/8/1934(H1N1), MDCK, 48 h
Influenza B virus = settings: mdck
Rattus norvegicus [5] = test: Tmax in Sprague-Dawley rat at 20 mg/kg, po by LC-MS analysis; assay type: ADME, organism-based; settings: in vivo
[6] = Oral bioavailability in Sprague-Dawley rat at 20 mg/kg by LC-MS analysis; assay type: ADME, organism-based; settings: in vivo
in vivo = settings: Sprague-Dawley, rat, po, 20 mg/kg
Rattus norvegicus [7] = test: Half life in Sprague-Dawley rat at 20 mg/kg, po by LC-MS analysis; assay type: ADME, organism-based; settings: in vivo
Rattus norvegicus [8] = species on record: Rattus norvegicus; settings: in vivo, po, 20 mg/kg
Rattus norvegicus [9] = test: Cmax in Sprague-Dawley rat at 20 mg/kg, po by LC-MS analysis; assay type: ADME, organism-based; set-up: dose 20 mg/kg, route oral; settings: in vivo
[10] = MRT (0 to infinity) in Sprague-Dawley rat at 20 mg/kg, po by LC-MS analysis; assay type: ADME, organism-based; settings: in vivo

SMILES: CCC(CC)O[C@@H]1C=C(C(=O)O)C[C@H](NCc2ccc(-c3ccc4sccc4c3)cc2)[C@H]1NC(C)=O
- CC50 at 48 h (in vitro [1]): > 200 µM

SMILES: CCC(CC)O[C@@H]1C=C(C(=O)O)C[C@H](NCc2ccc(Sc3cccs3)cc2)[C@H]1NC(C)=O
- CC50 at 48 h (in vitro [2]): > 250 µM
- EC50 (Influenza A virus [3]): 79 µM
- EC50 (Influenza A virus [4]): 0.04 µM
- CC50 at 48 h (in vitro [1]): > 200 µM
- EC50 (Influenza B virus): 8.5 µM

SMILES: CCC(CC)O[C@@H]1C=C(C(=O)O)C[C@H](NCc2ccc(OC(C)C)cc2)[C@H]1NC(C)=O
- CC50 at 48 h (in vitro [1]): > 200 µM

SMILES: CCC(CC)O[C@@H]1C=C(C(=O)O)C[C@H](NCc2cccc(-c3ccc(SC)cc3)c2)[C@H]1NC(C)=O
- CC50 at 48 h (in vitro [1]): > 200 µM

SMILES: CCC(CC)O[C@@H]1C=C(C(=O)O)C[C@H](NCc2ccc(Cc3ccccc3)cc2)[C@H]1NC(C)=O
- CC50 at 48 h (in vitro [1]): > 200 µM

SMILES: CCOC(=O)C1=C[C@@H](OC(CC)CC)[C@H](NC(C)=O)[C@@H](NCc2ccc(Sc3ccccc3)cc2)C1
- Tmax (Rattus norvegicus [5]): 0.57 h
- bioavailability [6]: 7.1%
- AUC(0-t) (in vivo): 1040 ng·h/mL
- t1/2 (Rattus norvegicus [7]): 8.68 h
- AUC (Rattus norvegicus [8]): 1594.62 ng·h/mL
- Cmax (Rattus norvegicus [9]): 445.6 µg/mL
- MRT inf [10]: 17.1 h

SMILES: CCC(CC)O[C@@H]1C=C(C(=O)O)C[C@H](NCc2cccc(SC(C)CC)c2)[C@H]1NC(C)=O (stereo partly drawn)
- CC50 at 48 h (in vitro [1]): > 200 µM

SMILES: CCC(CC)O[C@@H]1C=C(C(=O)O)C[C@H](NCc2cccc(OC)c2)[C@H]1NC(C)=O
- CC50 at 48 h (in vitro [1]): > 200 µM

SMILES: CCC(CC)O[C@@H]1C=C(C(=O)O)C[C@H](NCc2cccc(SC3CCCC3)c2)[C@H]1NC(C)=O
- CC50 at 48 h (in vitro [1]): > 200 µM

SMILES: CCC(CC)O[C@@H]1C=C(C(=O)O)C[C@H](NCc2ccc(Oc3ccccc3)cc2)[C@H]1NC(C)=O
- CC50 at 48 h (in vitro [1]): > 200 µM

SMILES: CCC(CC)O[C@@H]1C=C(C(=O)O)C[C@H](NCc2ccc(C(=O)c3ccccc3)cc2)[C@H]1NC(C)=O
- CC50 at 48 h (in vitro [1]): > 200 µM

SMILES: CCC(CC)O[C@@H]1C=C(C(=O)O)C[C@H](NCc2ccc(-c3cc4ccccc4s3)cc2)[C@H]1NC(C)=O
- CC50 at 48 h (in vitro [2]): > 250 µM
- EC50 (Influenza A virus [3]): > 100 µM
- EC50 (Influenza A virus [4]): 7.2 µM
- CC50 at 48 h (in vitro [1]): > 200 µM
- EC50 (Influenza B virus): > 100 µM

SMILES: CCC(CC)Oc1ccc(CN[C@H]2CC(C(=O)O)=C[C@@H](OC(CC)CC)[C@@H]2NC(C)=O)cc1
- CC50 at 48 h (in vitro [2]): > 250 µM
- EC50 (Influenza A virus [3]): > 100 µM
- EC50 (Influenza A virus [4]): 13 µM
- CC50 at 48 h (in vitro [1]): > 200 µM
- EC50 (Influenza B virus): > 100 µM

SMILES: CCc1ccc(CN[C@H]2CC(C(=O)O)=C[C@@H](OC(CC)CC)[C@@H]2NC(C)=O)cc1
- CC50 at 48 h (in vitro [1]): > 200 µM

SMILES: CCC(CC)O[C@@H]1C=C(C(=O)O)C[C@H](NCc2ccc(SC(C)CC)cc2)[C@H]1NC(C)=O (stereo partly drawn)
- CC50 at 48 h (in vitro [1]): > 200 µM
